Data as given in the kinase profiling compilation of Christmann-Franck et al. (2016).

How the values were obtained:
Test in all cases: radiometric filter-binding kinase assay, Kinase HotSpot
Conditions in all cases: compound 0.5 µM; ATP 10 µM
ABL1 (human) = ABL1 (human) (UniProt P00519)
ACVR1B (human) = ACVR1B (human) (UniProt P36896)
AKT2 (human) = AKT2 (human) (UniProt P31751)
AXL (human) = AXL (human) (UniProt P30530)
CAMK2B (human) = CAMK2B (human) (UniProt Q13554)
CAMK4 (human) = CAMK4 (human) (UniProt Q16566)
CDC42BPA (human) = CDC42BPA (human) (UniProt Q5VT25)
CDK6 CCND1 (human) = CDK6 CCND1 (human) (UniProt Q00534+P24385)
CHUK (human) = CHUK (human) (UniProt O15111)
CLK3 (human) = CLK3 (human) (UniProt P49761)
CSF1R (human) = CSF1R (human) (UniProt P07333)
CSNK1D (human) = CSNK1D (human) (UniProt P48730)
DYRK1B (human) = DYRK1B (human) (UniProt Q9Y463)
FES (human) = FES (human) (UniProt P07332)
FGFR1 (human) = FGFR1 (human) (UniProt P11362)
FGR (human) = FGR (human) (UniProt P09769)
FLT3 (human) = FLT3 (human) (UniProt P36888)
GRK7 (human) = GRK7 (human) (UniProt Q8WTQ7)
GSG2 (human) = GSG2 (human) (UniProt Q8TF76)
INSRR (human) = INSRR (human) (UniProt P14616)
IRAK1 (human) = IRAK1 (human) (UniProt P51617)
MAPK3 (human) = MAPK3 (human) (UniProt P27361)
MAPK9 (human) = MAPK9 (human) (UniProt P45984)
MARK1 (human) = MARK1 (human) (UniProt Q9P0L2)
MARK2 (human) = MARK2 (human) (UniProt Q7KZI7)
[1] = test system: MKNK1 (human), Q9BUB5 [T385D; 165-205 del]
MLTK (human) = MLTK (human) (UniProt Q9NYL2)
MYLK (human) = MYLK (human) (UniProt Q15746)
NEK3 (human) = NEK3 (human) (UniProt P51956)
NEK7 (human) = NEK7 (human) (UniProt Q8TDX7)
NEK9 (human) = NEK9 (human) (UniProt Q8TD19)
PDGFRA (human) = PDGFRA (human) (UniProt P16234)
PHKG1 (human) = PHKG1 (human) (UniProt Q16816)
PLK1 (human) = PLK1 (human) (UniProt P53350)
PRKACA (human) = PRKACA (human) (UniProt P17612)
PRKCB1 (human) = PRKCB1 (human) (UniProt P05771)
PTK6 (human) = PTK6 (human) (UniProt Q13882)
SLK (human) = SLK (human) (UniProt Q9H2G2)
SRPK3 (human) = SRPK3 (human) (UniProt Q9UPE1)
STK25 (human) = STK25 (human) (UniProt O00506)
TEK (human) = TEK (human) (UniProt Q02763)
WNK3 (human) = WNK3 (human) (UniProt Q9BYP7)

Chain of CLK3 (human) (P49761 whole entry, looked up): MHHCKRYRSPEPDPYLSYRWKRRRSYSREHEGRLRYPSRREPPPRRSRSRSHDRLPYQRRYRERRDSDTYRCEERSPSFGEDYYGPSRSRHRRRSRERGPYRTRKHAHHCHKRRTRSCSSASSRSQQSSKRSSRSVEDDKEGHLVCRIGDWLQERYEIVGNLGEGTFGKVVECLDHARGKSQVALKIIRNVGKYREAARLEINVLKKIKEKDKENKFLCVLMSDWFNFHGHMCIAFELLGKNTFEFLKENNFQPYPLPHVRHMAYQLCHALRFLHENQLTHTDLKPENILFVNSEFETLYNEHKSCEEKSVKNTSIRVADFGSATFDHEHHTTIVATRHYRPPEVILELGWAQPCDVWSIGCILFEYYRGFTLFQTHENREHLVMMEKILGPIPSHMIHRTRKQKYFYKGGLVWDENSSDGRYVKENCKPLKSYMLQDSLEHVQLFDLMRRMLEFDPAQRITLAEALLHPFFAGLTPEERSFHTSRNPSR
Chain of INSRR (human) (P14616 whole entry, looked up): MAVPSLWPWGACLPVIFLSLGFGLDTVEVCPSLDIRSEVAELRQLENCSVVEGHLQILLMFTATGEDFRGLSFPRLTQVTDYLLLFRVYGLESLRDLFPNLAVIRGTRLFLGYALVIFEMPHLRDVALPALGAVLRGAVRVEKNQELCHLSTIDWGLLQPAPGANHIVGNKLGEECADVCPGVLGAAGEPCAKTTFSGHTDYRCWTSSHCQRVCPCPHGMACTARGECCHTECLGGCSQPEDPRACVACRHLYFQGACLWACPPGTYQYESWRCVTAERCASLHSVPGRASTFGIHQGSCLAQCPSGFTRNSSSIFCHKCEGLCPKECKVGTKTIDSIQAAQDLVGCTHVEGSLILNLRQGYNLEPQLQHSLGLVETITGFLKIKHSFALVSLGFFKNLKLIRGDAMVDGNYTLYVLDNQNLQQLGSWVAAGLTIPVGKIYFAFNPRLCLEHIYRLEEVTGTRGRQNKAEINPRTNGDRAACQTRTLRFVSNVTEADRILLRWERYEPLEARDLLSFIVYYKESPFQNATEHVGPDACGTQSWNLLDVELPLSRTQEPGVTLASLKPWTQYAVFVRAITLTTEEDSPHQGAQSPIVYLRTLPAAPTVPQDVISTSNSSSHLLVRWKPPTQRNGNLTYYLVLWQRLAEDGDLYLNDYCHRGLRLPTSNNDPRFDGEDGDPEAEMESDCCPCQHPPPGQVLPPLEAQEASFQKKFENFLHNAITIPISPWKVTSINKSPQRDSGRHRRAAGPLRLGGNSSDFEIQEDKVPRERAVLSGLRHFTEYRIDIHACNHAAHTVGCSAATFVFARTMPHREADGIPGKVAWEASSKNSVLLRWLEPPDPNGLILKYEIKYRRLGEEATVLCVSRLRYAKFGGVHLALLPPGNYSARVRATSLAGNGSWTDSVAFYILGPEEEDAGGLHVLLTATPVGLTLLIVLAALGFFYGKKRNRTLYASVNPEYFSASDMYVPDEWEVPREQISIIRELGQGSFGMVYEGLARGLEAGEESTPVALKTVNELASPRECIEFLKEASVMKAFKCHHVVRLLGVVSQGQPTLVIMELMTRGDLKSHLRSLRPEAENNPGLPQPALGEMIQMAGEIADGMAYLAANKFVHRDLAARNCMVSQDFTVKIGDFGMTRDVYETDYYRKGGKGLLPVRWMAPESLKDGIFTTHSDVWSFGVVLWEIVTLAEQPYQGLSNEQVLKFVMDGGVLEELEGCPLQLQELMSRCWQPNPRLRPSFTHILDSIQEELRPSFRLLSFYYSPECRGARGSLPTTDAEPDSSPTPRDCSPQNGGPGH
Chain of NEK9 (human) (Q8TD19 whole entry, looked up): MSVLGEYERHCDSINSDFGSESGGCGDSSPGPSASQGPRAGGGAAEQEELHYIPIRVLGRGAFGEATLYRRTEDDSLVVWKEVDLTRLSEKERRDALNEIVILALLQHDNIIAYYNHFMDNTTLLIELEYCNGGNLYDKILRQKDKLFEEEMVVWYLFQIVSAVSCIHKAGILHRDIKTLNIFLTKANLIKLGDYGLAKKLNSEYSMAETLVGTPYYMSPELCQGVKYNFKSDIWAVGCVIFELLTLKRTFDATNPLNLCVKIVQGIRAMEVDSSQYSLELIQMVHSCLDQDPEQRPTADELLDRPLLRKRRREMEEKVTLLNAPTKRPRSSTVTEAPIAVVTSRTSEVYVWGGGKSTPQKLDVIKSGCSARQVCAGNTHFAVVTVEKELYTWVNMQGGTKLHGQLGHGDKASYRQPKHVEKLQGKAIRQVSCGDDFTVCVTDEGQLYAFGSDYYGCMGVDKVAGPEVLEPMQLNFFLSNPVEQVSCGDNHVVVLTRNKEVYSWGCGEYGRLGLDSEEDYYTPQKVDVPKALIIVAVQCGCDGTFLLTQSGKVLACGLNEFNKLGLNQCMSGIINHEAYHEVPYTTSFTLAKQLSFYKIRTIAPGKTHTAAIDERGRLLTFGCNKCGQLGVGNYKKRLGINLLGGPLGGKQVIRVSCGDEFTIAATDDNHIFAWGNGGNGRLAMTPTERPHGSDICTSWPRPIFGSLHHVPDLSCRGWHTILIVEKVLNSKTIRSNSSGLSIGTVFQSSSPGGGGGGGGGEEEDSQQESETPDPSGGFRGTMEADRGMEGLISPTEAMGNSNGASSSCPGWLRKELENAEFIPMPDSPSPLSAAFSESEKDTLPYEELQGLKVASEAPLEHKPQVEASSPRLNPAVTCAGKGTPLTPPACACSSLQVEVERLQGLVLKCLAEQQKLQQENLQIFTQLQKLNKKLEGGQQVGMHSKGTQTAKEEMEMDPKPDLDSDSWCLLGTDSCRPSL
Chain of PLK1 (human) (P53350 whole entry, looked up): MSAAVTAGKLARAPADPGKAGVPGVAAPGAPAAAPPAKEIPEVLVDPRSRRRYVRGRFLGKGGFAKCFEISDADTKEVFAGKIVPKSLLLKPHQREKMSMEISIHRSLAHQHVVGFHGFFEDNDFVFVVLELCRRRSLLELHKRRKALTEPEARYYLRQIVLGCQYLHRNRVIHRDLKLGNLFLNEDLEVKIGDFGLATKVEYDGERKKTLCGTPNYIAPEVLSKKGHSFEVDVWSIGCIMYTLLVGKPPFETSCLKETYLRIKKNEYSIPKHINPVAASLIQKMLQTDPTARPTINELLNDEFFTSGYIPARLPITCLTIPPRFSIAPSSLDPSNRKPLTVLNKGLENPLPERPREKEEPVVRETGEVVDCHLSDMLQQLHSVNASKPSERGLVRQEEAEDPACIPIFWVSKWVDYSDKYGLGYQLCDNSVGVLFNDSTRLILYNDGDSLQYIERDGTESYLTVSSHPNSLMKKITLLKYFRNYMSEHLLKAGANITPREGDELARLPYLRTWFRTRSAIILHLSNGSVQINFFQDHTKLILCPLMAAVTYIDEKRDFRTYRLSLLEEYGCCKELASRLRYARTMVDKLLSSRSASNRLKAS
Chain of GSG2 (human) (Q8TF76 whole entry, looked up): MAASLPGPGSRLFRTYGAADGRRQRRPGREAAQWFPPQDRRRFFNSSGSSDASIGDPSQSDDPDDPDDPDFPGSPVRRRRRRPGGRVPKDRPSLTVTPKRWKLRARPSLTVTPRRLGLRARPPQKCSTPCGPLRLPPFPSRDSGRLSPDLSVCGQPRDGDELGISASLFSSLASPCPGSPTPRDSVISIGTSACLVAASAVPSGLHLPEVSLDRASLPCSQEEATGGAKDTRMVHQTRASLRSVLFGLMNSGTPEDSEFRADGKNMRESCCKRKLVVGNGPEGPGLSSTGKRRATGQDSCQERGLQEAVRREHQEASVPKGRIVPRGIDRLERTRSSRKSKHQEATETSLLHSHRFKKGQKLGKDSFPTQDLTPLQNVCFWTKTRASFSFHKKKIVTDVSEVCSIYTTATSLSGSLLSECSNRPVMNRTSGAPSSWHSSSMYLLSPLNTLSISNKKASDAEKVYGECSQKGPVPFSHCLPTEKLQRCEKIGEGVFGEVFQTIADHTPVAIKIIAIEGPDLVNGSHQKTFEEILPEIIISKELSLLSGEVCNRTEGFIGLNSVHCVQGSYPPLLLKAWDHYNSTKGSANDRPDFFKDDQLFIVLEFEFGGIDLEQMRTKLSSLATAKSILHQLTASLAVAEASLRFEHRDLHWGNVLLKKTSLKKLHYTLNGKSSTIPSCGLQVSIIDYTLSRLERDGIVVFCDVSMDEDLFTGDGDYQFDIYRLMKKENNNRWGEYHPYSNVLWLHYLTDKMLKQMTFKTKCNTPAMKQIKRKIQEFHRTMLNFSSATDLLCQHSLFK
Chain of FGFR1 (human) (P11362 whole entry, looked up): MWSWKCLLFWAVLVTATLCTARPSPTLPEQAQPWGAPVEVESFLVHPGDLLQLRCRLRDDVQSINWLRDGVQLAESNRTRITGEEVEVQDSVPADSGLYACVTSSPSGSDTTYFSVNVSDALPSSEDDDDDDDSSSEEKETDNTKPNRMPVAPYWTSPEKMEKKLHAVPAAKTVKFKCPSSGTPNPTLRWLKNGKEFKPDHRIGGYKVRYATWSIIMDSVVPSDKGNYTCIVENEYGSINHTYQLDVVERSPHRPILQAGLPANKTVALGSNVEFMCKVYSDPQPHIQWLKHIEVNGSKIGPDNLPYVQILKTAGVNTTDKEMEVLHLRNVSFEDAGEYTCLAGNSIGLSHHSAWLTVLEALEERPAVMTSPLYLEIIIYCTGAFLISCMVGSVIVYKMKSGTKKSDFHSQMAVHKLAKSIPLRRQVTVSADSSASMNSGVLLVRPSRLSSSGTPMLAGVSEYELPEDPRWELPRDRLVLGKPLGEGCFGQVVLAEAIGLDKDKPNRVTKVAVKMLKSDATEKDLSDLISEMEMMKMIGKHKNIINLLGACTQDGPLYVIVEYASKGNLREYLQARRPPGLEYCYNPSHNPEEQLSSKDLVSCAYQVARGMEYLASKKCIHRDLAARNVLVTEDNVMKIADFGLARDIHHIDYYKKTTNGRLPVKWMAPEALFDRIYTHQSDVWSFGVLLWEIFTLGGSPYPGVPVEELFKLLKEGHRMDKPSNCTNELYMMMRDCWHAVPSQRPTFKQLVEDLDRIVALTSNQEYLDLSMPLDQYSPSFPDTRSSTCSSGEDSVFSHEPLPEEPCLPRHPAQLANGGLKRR

For `CC(C)(C)c1cc(C=C(C#N)C#N)cc(Br)c1O`, the residual activity (ABL1 (human)) was 59.8%, the residual activity (ACVR1B (human)) was 108% and the residual activity (AKT2 (human)) was 97.7%. It also gave a residual activity (AXL (human)) of 103%, a residual activity (CAMK2B (human)) of 99.3% and a residual activity (CAMK4 (human)) of 94.2%. It also gave a residual activity (CDC42BPA (human)) of 101%, a residual activity (CDK6 CCND1 (human)) of 99.1% and a residual activity (CHUK (human)) of 89.7%. For the same compound, the residual activity (CLK3 (human)) was 122%, the residual activity (CSF1R (human)) was 96.8% and the residual activity (CSNK1D (human)) was 85.5%. It also gave a residual activity (DYRK1B (human)) of 103%, a residual activity (FES (human)) of 105% and a residual activity (FGFR1 (human)) of 95.9%. For the same compound, the residual activity (FGR (human)) was 75.4%, the residual activity (FLT3 (human)) was 102% and the residual activity (GRK7 (human)) was 107%. It also gave a residual activity (GSG2 (human)) of 67.2%, a residual activity (INSRR (human)) of 103% and a residual activity (IRAK1 (human)) of 105%. The residual activity (MAPK3 (human)) was 105%, the residual activity (MAPK9 (human)) was 103% and the residual activity (MARK1 (human)) was 98.8%. The residual activity (MARK2 (human)) was 81.6%, the residual activity [1] was 95.9% and the residual activity (MLTK (human)) was 91.2%. It also gave a residual activity (MYLK (human)) of 90.6%, a residual activity (NEK3 (human)) of 96.6% and a residual activity (NEK7 (human)) of 89.5%. The residual activity (NEK9 (human)) was 103%, the residual activity (PDGFRA (human)) was 95.4% and the residual activity (PHKG1 (human)) was 96.7%. It also gave a residual activity (PLK1 (human)) of 92.3%, a residual activity (PRKACA (human)) of 102% and a residual activity (PRKCB1 (human)) of 102%. It also gave a residual activity (PTK6 (human)) of 91.4%, a residual activity (SLK (human)) of 94.7% and a residual activity (SRPK3 (human)) of 79.4%. For the same compound, the residual activity (STK25 (human)) was 102%, the residual activity (TEK (human)) was 97.9% and the residual activity (WNK3 (human)) was 106%.

Work on `COc1ccc(S(=O)(=O)N(CCO)c2ccccc2CN(C)C/C=C/c2ccc(Cl)cc2)cc1` yielded a residual activity (ABL1 (human)) of 100%, a residual activity (ACVR1B (human)) of 93.2% and a residual activity (AKT2 (human)) of 106%. It also gave a residual activity (AXL (human)) of 104%, a residual activity (CAMK2B (human)) of 100% and a residual activity (CAMK4 (human)) of 97.5%. It also gave a residual activity (CDC42BPA (human)) of 100%, a residual activity (CDK6 CCND1 (human)) of 92.7% and a residual activity (CHUK (human)) of 92.7%. For the same compound, the residual activity (CLK3 (human)) was 100%, the residual activity (CSF1R (human)) was 103% and the residual activity (CSNK1D (human)) was 102%. It also gave a residual activity (DYRK1B (human)) of 104%, a residual activity (FES (human)) of 96.3% and a residual activity (FGFR1 (human)) of 99.5%. It also gave a residual activity (FGR (human)) of 99.8%, a residual activity (FLT3 (human)) of 98.4% and a residual activity (GRK7 (human)) of 114%. It also gave a residual activity (GSG2 (human)) of 95.3%, a residual activity (INSRR (human)) of 97% and a residual activity (IRAK1 (human)) of 98%. The residual activity (MAPK3 (human)) was 95.1%, the residual activity (MAPK9 (human)) was 85.5% and the residual activity (MARK1 (human)) was 98.4%. It also gave a residual activity (MARK2 (human)) of 95.5%, a residual activity [1] of 103% and a residual activity (MLTK (human)) of 97%. For the same compound, the residual activity (MYLK (human)) was 98.4%, the residual activity (NEK3 (human)) was 96.2% and the residual activity (NEK7 (human)) was 93.4%. For the same compound, the residual activity (NEK9 (human)) was 91.9%, the residual activity (PDGFRA (human)) was 102% and the residual activity (PHKG1 (human)) was 95.4%. For the same compound, the residual activity (PLK1 (human)) was 98.8%, the residual activity (PRKACA (human)) was 104% and the residual activity (PRKCB1 (human)) was 97.7%. For the same compound, the residual activity (PTK6 (human)) was 89.3%, the residual activity (SLK (human)) was 103% and the residual activity (SRPK3 (human)) was 97.3%. For the same compound, the residual activity (STK25 (human)) was 99.6%, the residual activity (TEK (human)) was 105% and the residual activity (WNK3 (human)) was 99.4%.
